What was measured:
Cbl-b [1] = target: T1, Cbl-b (Homo sapiens, UniProt Q13191); assay: Cbl-b inhibition assay (Cbl-b activity assay, FRET, Biological Example 1; 100 mM NaCl, 60 nM Src kinase); type: biochemical; settings: upper bound stated in text lists; read-out: IC50 values in the Cbl-b inhibition assay of Biological Example 1
In short: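 FRET read-out: loss of signal marks inhibition. Mix = biotin-Avi-Cbl-b (N-term), Src kinase, UbcH5B-Ub(Bodipy-FL, irreversible conjugate), streptavidin-Tb, assay buffer.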

T-cell [2] = assay: IL-2 secretion from T-cells co-stimulated with anti-CD3 and anti-CD28 antibody (Biological Example 2); type: cell-based, human; settings: Homo sapiens, T-cell, primary human total T-cells, baseline = anti-CD3/anti-CD28 stimulated cells without inhibitor, read-out: IL-2 secretion, Anti-CD3/Anti-CD28 stimulation, fold change over baseline; for fold induction at 0.3 µM: 0.3 μM compound; for fold induction at 1 µM: 1 μM compound; for fold induction at 4 µM: 4 μM compound
In short: (§1)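 No assay protocol given; T-cells stimulated with anti-CD3 alone or anti-CD3 plus anti-CD28, with or without Cbl-b inhibitor. Activation read as IL-2 secretion or CD25 surface staining, expressed as fold over baseline from uninhibited cells […].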

T-cell [3] = assay: CD25 cell surface staining on T-cells co-stimulated with anti-CD3 and anti-CD28 antibody (Biological Example 2); type: cell-based, human; settings: Homo sapiens, T-cell, primary human total T-cells, baseline = anti-CD3/anti-CD28 stimulated cells without inhibitor, read-out: CD25 staining, Anti-CD3/Anti-CD28 stimulation, fold change over baseline; for fold induction at 0.3 µM: 0.3 μM compound; for fold induction at 1 µM: 1 μM compound; for fold induction at 4 µM: 4 μM compound
In short: as §1

Cbl-b [4] = target: T1, Cbl-b; assay: Cbl-b activity assay (Cbl-b inhibition assay), TR-FRET of Cbl-b interaction with UbcH5B-Ub; type: biochemical; settings: assay buffer with 100 mM NaCl, 60 nM Src kinase; read-out: Cbl-b activity IC50
In short: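 TR-FRET readout of Cbl-b binding to Bodipy-fluorescein N-terminally labeled Ub conjugated to UbcH5B C85K, measured with compound present. After compound incubation, 60 nM Src kinase with 1 mM ATP and 5 mM MgCl2 (final) was added for 1.5 h, then a further 1 h incubation; asterisked values used 50 mM NaCl buffer and 30 nM Src.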

T-cell [5] = assay: IL-2 secretion from T-cells stimulated with anti-CD3 antibody alone (Biological Example 2); type: cell-based; settings: primary human total T-cells, read-out: IL-2 secretion, Anti-CD3 stimulation, fold change over baseline; for fold induction at 1 µM: 1 μM compound; for fold induction at 8 µM: 8 μM compound
T-cell [6] = assay: CD25 cell surface staining on T-cells stimulated with anti-CD3 antibody alone (Biological Example 2); type: cell-based; settings: primary human total T-cells, baseline = anti-CD3/anti-CD28 stimulated cells without inhibitor, read-out: CD25 staining, Anti-CD3 stimulation, fold change over baseline; for fold induction at 1 µM: 1 μM compound; for fold induction at 8 µM: 8 μM compound

T1 sequence (Q13191 36-427): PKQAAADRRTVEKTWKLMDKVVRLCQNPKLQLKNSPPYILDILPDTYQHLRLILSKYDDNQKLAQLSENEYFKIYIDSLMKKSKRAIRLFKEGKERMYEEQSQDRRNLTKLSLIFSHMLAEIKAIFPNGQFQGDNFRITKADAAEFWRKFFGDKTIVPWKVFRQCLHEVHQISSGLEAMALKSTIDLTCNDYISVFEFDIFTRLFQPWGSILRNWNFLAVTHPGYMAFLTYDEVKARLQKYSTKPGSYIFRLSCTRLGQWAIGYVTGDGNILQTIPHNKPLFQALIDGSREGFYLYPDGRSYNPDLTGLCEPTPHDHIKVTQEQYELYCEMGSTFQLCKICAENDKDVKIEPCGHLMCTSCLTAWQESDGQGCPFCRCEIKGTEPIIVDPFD

Row | SMILES | IC50 (Cbl-b [1]) [nM] | fold induction at 0.3 µM (T-cell [2]) | fold induction at 1 µM (T-cell [2]) | fold induction at 0.3 µM (T-cell [3]) | fold induction at 1 µM (T-cell [3]) | IC50 (Cbl-b [4]) [nM] | fold induction at 1 µM (T-cell [5]) | fold induction at 1 µM (T-cell [6]) | fold induction at 4 µM (T-cell [2]) | fold induction at 4 µM (T-cell [3]) | fold induction at 8 µM (T-cell [5]) | fold induction at 8 µM (T-cell [6])
1 | CN1CC[C@@H](O)[C@@H](Cc2cc3c(c(C(F)(F)F)c2)CN(c2cccc(C4(Cc5nncn5C)COC4)c2)C3=O)C1 (racemic) [Compound 532, 6-(((cis)-4-hydroxy-1-methylpiperidin-3-yl)methyl)-2-(3-(3-((4-methyl-4H-1,2,4-triazol-3-yl)methyl)oxetan-3-yl)phenyl)-4-(trifluoromethyl)isoindolin-1-one] | ≤ 100 | 1.01 to 2.5 | 2.51 to 5 | 1.01 to 1.3 | 1.01 to 1.3 | < 100 | 0.101 to 0.15 | 0.801 to 1 |  |  |  | 
2 | Cn1cnnc1CC1(c2cccc(N3Cc4c(cc(CN5CC[C@H]6C[C@H]65)cc4C(F)(F)F)C3=O)c2)COC1 (single isomer, unassigned) [Compound 486a] | ≤ 100 | > 7.5 | > 7.5 | 1.51 to 1.75 | 1.51 to 1.75 | < 100 | > 0.201 | > 1 |  |  |  | 
3 | Cn1cnnc1CC1(c2cccc(N3Cc4c(cc(CN5CC[C@@H]6C[C@@H]65)cc4C(F)(F)F)C3=O)c2)COC1 (single isomer, unassigned) [Compound 486b] | ≤ 100 | > 7.5 | > 7.5 | 1.51 to 1.75 | 1.51 to 1.75 | < 100 | > 0.201 | > 1 |  |  |  | 
4 | C[C@H](c1cc2c(c(C(F)(F)F)c1)CN(c1cccc(C3([C@H](F)c4nncn4C)COC3)c1)C2=O)N1CCC2(CC2)C1 (single isomer, unassigned) [Compound 516] | ≤ 100 | > 7.5 | > 7.5 | > 1.76 | > 1.76 | < 100 | > 0.201 | > 1 |  |  |  | 
5 | Cn1cnnc1C[C@@]1(c2cccc(N3Cc4c(cc(CN5CCC6(CC6)C5)cc4C(F)(F)F)C3=O)c2)CCOC1 (single isomer, unassigned) [Compound 517a] | ≤ 100 | 2.51 to 5 | > 7.5 | 1.01 to 1.3 | 1.01 to 1.3 | < 100 | 0.101 to 0.15 | 0.801 to 1 |  |  |  | 
6 | Cn1cnnc1C[C@]1(c2cccc(N3Cc4c(cc(CN5CCC6(CC6)C5)cc4C(F)(F)F)C3=O)c2)CCOC1 (single isomer, unassigned) [Compound 517b] | ≤ 100 | > 7.5 | > 7.5 | 1.01 to 1.3 | 1.01 to 1.3 | < 100 | > 0.201 | > 1 |  |  |  | 
7 | Cc1cc(C(=O)Nc2cccc([C@]3(Cc4nncn4C)CCOC3)c2)nc(C2CC2)n1 (single isomer, unassigned) [Compound 534a] | ≤ 300 | 1.01 to 2.5 | 2.51 to 5 | 1.01 to 1.3 | 1.01 to 1.3 | 100 to 300 | 0.051 to 0.1 | 0.601 to 0.8 |  |  |  | 
8 | Cc1cc(C(=O)Nc2cccc([C@@]3(Cc4nncn4C)CCOC3)c2)nc(C2CC2)n1 (single isomer, unassigned) [Compound 534b] | ≤ 100 | 2.51 to 5 | 2.51 to 5 | 1.01 to 1.3 | 1.01 to 1.3 | < 100 | 0.101 to 0.15 | 0.801 to 1 |  |  |  | 
9 | Cn1cnnc1[C@@H](F)[C@](C)(F)c1cccc(N2Cc3c(cc(C4CC4)cc3C(F)(F)F)C2=O)c1 (stereo in doubt) [Compound 482, 6-cyclopropyl-2-[3-[(1R,2R)-1,2-difluoro-1-(4-methyl-4H-1,2,4-triazol-3-yl)propan-2-yl]phenyl]-4-(trifluoromethyl)-2,3-dihydro-1H-isoindol-1-one] |  | < 1 | 1.01 to 2.5 | 1.01 to 1.3 | 1.01 to 1.3 | 301 to 1000 | 0.051 to 0.1 | 0.601 to 0.8 | 1.01 to 2.5 | 1.01 to 1.3 | 0.051 to 0.1 | 0.801 to 1
10 | Cn1cnnc1[C@H](F)[C@@](C)(F)c1cccc(N2Cc3c(cc(C4CC4)cc3C(F)(F)F)C2=O)c1 (stereo in doubt) [Compound 483, 6-cyclopropyl-2-[3-[(1S,2S)-1,2-difluoro-1-(4-methyl-4H-1,2,4-triazol-3-yl)propan-2-yl]phenyl]-4-(trifluoromethyl)-2,3-dihydro-1H-isoindol-1-one] | ≤ 300 | < 1 | 1.01 to 2.5 | 1.01 to 1.3 | 1.01 to 1.3 | 100 to 300 | 0.051 to 0.1 | 0.601 to 0.8 | 1.01 to 2.5 | 1.01 to 1.3 | 0.051 to 0.1 | 0.801 to 1
11 | C[C@H](c1cc2c(c(C(F)(F)F)c1)CN(c1cccc(C3([C@@H](F)c4nncn4C)COC3)c1)C2=O)N1CCC2(CC2)C1 (stereo in doubt) [Compound 515, 6-[(1R)-1-{5-azaspiro[2.4]heptan-5-yl}ethyl]-2-(3-{3-[(R)-fluoro(4-methyl-1,2,4-triazol-3-yl)methyl]oxetan-3-yl}phenyl)-4-(trifluoromethyl)-3H-isoindol-1-one] | ≤ 100 | > 7.5 | > 7.5 | > 1.76 | > 1.76 | < 100 | > 0.201 | > 1 |  |  |  | 
12 | Cn1cnnc1C(F)(F)[C@](C)(F)c1cccc(N2Cc3c(cc(C(=O)N4CC(C(F)F)C4)cc3C(F)(F)F)C2=O)c1 [Compound 439, (R)-6-(3-(difluoromethyl)azetidine-1-carbonyl)-2-(3-(1,1,2-trifluoro-1-(4-methyl-4H-1,2,4-triazol-3-yl)propan-2-yl)phenyl)-4-(trifluoromethyl)isoindolin-1-one] |  | 1.01 to 2.5 | 1.01 to 2.5 | 1.01 to 1.3 | 1.01 to 1.3 | 301 to 1000 | 0.051 to 0.1 | 0.601 to 0.8 | 1.01 to 2.5 | 1.01 to 1.3 | 0.051 to 0.1 | 0.801 to 1
13 | Cn1cnnc1C(F)(F)[C@@](C)(F)c1cccc(N2Cc3c(cc(CN4CC[C@H](F)C4)cc3C(F)(F)F)C2=O)c1 [Compound 449, 6-(((S)-3-fluoropyrrolidin-1-yl)methyl)-2-(3-((S)-1,1,2-trifluoro-1-(4-methyl-4H-1,2,4-triazol-3-yl)propan-2-yl)phenyl)-4-(trifluoromethyl)isoindolin-1-one] |  | < 1 | < 1 | < 1 | < 1 | 301 to 1000 | 0.051 to 0.1 | 0.601 to 0.8 | 1.01 to 2.5 | 1.01 to 1.3 | 0.051 to 0.1 | 0.801 to 1
14 | CC(Cc1nncn1C)c1cc(C2CCC2)cc(N2Cc3c(cccc3C(F)(F)F)C2=O)c1 (centres unmarked) [Compound 476, 2-(3-cyclobutyl-5-(1-(4-methyl-4H-1,2,4-triazol-3-yl)propan-2-yl)phenyl)-4-(trifluoromethyl)isoindolin-1-one] |  | 1.01 to 2.5 | 1.01 to 2.5 | 1.01 to 1.3 | 1.01 to 1.3 | 301 to 1000 | 0.051 to 0.1 | 0.601 to 0.8 | 1.01 to 2.5 | 1.01 to 1.3 | 0.051 to 0.1 | 0.801 to 1
